ChEMBL document CHEMBL1201862, “PubChem BioAssay data set” (2004)
Calls of active or inactive are those of the source.

Key:
Caspase-3 = target: T1, Caspase-3 (Homo sapiens, UniProt P42574); type: functional;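 further: Dose-response selectivity test against caspase-3 for candidate inhibitors of sentrin-specific proteases (SENPs)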
T1 sequence (P42574 whole entry): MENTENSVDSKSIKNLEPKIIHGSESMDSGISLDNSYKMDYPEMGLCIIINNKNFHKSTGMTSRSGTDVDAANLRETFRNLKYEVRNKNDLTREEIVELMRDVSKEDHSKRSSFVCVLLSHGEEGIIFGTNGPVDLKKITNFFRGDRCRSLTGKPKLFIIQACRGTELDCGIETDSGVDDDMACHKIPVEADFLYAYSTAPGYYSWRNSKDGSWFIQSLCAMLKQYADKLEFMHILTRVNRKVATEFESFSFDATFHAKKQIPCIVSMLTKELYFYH

[1] = target: T2, Sentrin-specific protease 7 (Homo sapiens, UniProt Q9BQF6); type: functional;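 further: Luminescence-based dose-response confirmation of ultra-high-throughput screening hits, measuring inhibition of SENP7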
T2 sequence (Q9BQF6 whole entry): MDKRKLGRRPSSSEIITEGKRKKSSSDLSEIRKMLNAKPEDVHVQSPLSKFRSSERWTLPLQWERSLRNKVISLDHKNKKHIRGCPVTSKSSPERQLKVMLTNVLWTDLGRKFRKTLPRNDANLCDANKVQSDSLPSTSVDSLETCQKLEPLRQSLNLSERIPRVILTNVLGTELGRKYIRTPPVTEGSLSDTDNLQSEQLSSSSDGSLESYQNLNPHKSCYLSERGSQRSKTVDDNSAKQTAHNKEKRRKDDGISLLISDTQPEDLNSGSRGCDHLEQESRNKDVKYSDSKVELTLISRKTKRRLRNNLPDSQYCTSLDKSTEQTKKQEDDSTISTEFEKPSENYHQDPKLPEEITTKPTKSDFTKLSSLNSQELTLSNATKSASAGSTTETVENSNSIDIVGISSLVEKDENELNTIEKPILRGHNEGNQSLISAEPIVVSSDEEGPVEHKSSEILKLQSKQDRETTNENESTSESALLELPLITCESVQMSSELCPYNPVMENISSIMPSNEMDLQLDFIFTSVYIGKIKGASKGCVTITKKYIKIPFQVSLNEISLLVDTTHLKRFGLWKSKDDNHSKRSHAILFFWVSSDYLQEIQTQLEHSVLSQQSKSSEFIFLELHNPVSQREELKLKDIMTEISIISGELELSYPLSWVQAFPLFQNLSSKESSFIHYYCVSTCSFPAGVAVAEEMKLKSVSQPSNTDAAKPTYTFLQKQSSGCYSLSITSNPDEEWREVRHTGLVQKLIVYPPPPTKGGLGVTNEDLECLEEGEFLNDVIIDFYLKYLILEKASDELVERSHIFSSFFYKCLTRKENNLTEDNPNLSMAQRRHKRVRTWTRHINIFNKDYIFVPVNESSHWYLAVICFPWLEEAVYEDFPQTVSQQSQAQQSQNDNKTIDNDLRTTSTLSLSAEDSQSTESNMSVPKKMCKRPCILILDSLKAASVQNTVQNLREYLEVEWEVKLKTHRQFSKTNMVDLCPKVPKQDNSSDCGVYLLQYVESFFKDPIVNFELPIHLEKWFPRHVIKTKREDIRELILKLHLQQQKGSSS

[2] = target: T3, Sentrin-specific protease 8 (Homo sapiens, UniProt Q96LD8); type: functional;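 further: luminescence read-out of SENP8 inhibition, dose-response confirmation following an ultra-high-throughput screen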
T3 sequence (Q96LD8 whole entry): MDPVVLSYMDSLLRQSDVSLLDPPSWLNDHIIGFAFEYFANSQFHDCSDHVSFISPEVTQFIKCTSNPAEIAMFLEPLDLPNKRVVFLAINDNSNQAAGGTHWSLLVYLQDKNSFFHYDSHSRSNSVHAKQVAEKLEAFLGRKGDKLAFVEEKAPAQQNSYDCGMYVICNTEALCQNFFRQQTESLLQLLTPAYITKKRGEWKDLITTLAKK

[3] = Luminescence Cell-Based Dose Response HTS to Identify Activators of Luciferase Translation or Activity in H4 […] Cells. [Related pubchem assays: 1829 (Project Summary), 1814 (Primary HTS)]; type: functional
H4 = assay: Luminescence Cell-Based Dose Response HTS to Identify Activators of 5'UTR Stem-Loop Driven Prion Protein mRNA Translation in H4 Neuroglioblastoma Cells. [Related pubchem assays: 1829 (Project Summary), 1814 (Primary HTS)]; type: functional; settings: Homo sapiens
[4] = target: T4, Sentrin-specific protease 6 (Homo sapiens, UniProt Q9GZR1); type: functional;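 further: Luminescence-based dose-response confirmatory assay of SENP6 inhibition, following up an ultra-high-throughput screen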
T4 sequence (Q9GZR1 whole entry): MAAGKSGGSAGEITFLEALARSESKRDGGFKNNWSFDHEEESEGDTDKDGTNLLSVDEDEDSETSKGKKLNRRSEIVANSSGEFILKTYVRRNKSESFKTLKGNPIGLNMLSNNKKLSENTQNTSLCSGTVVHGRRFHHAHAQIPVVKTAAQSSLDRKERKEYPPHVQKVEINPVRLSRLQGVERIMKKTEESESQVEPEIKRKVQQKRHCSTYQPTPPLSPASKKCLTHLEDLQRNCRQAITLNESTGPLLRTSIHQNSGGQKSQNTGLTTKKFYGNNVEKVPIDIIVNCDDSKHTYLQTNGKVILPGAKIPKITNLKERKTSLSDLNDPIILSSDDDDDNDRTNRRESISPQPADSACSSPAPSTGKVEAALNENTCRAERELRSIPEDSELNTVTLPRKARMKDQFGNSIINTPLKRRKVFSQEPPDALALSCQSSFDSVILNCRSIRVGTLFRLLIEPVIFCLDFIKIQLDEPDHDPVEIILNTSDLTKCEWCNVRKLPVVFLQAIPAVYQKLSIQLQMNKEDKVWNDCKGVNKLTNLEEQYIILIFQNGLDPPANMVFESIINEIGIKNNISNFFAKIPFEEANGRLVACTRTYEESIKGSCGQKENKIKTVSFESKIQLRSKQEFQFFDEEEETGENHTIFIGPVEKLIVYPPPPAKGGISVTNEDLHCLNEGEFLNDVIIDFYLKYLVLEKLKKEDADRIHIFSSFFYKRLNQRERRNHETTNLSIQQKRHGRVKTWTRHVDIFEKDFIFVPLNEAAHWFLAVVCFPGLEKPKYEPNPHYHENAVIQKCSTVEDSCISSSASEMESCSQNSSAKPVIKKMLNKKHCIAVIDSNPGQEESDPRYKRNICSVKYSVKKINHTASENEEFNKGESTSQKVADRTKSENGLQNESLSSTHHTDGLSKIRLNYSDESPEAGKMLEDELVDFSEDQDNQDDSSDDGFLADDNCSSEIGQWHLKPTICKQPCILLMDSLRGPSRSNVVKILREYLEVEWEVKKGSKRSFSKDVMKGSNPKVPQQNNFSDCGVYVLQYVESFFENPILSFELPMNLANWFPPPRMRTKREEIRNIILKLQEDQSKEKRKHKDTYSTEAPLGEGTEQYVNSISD

BJ [5] = assay: growth inhibition of engineered Ras-driven BJ cells – cell-based, alamar blue fluorescence, cherrypicked samples, dose response (AID 2631); type: functional; settings: Homo sapiens;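 further: confirmatory dose-response assay in RAS-dependent BJ fibroblasts engineered with TERT, LT and ST, with cytotoxicity read by fluorescence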
BJ [6] = assay: BJ-TERT-LT-ST fibroblast viability loss – cell-based, RAS-independent, luminescence, dose response (AID 1935); type: functional; settings: Homo sapiens;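 further: BJ fibroblasts immortalized with TERT plus LT and ST oncogenes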
BJ [7] = assay: BJ-TERT fibroblast viability loss – cell-based, RAS-independent, luminescence, dose response (AID 1933); type: functional; settings: Homo sapiens
BJ [8] = assay: cells; type: functional, cell-based; settings: Homo sapiens
[9] = DRD fibroblast viability loss – cell-based, non-viral oncogenic, luminescence, dose response (AID 1934); type: functional; settings: Homo sapiens
Vero = assay: cells; type: functional; settings: Chlorocebus sabaeus
[10] = target: Dual specificity protein phosphatase 3 (Homo sapiens, UniProt P51452); assay: VHR phosphatase inhibition, dose response, selectivity assay for STEP inhibitor project, biochemical (AID 602374); type: functional; settings: read-out: IC50_Mean
Sequence of Dual specificity protein phosphatase 3 (P51452 whole entry): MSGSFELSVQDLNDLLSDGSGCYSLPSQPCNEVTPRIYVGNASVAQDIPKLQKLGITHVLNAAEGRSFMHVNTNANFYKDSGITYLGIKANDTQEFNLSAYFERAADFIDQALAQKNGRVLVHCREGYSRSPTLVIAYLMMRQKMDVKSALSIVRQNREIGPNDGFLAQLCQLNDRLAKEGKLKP

[11] = target: Tyrosine-protein phosphatase non-receptor type 11 (Homo sapiens, UniProt Q06124); assay: PTPN11 enzyme inhibitors – biochemical, selectivity assay for STEP inhibitor project, dose response (AID 602367); type: functional; settings: read-out: IC50_Mean
Sequence of Tyrosine-protein phosphatase non-receptor type 11 (Q06124 whole entry): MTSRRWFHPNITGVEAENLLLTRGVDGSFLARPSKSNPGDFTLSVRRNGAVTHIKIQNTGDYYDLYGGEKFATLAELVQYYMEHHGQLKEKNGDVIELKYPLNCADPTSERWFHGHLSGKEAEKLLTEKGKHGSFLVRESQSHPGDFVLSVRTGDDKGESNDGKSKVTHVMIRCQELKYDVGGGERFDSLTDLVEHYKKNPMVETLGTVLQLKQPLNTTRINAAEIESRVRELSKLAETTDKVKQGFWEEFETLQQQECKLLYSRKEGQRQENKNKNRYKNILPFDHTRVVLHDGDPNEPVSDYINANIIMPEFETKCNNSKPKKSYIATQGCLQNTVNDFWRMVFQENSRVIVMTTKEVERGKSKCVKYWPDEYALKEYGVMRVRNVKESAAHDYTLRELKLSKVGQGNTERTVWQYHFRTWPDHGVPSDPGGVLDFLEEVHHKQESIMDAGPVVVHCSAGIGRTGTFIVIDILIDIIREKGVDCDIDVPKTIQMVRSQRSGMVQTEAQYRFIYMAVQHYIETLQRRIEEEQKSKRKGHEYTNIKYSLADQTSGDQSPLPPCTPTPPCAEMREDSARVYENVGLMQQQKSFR

[12] = target: Tyrosine-protein phosphatase non-receptor type 5 (Homo sapiens, UniProt P54829); assay: PTPN5 enzyme inhibition – biochemical, fluorescence intensity, uHTS hits, confirmation (AID 602372); type: functional; settings: read-out: IC50_Mean
Sequence of Tyrosine-protein phosphatase non-receptor type 5 (P54829 whole entry, the tested form may be a part): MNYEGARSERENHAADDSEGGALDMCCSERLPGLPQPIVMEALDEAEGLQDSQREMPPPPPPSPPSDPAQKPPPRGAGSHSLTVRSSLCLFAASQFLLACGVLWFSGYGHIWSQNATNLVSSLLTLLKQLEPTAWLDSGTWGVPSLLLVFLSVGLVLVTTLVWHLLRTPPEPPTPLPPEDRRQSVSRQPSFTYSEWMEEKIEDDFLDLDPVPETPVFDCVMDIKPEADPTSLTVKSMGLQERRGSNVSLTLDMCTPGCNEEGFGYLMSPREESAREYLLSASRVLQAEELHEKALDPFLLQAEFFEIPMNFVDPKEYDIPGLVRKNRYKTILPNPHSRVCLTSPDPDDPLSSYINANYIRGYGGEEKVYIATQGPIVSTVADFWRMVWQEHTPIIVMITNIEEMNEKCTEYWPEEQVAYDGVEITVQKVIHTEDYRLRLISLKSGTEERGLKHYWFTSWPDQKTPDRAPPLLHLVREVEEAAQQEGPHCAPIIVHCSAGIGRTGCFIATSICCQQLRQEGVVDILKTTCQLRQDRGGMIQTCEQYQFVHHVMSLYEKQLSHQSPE

[13] = target: T5, Sentrin-specific protease 1 (Homo sapiens, UniProt Q9P0U3); assay: Dose response confirmation of small molecule inhibitors of the catalytic domain of the SUMO protease, SENP1 in a FRET assay.; type: functional; settings: read-out: IC50_Mean
T5 sequence (Q9P0U3 whole entry): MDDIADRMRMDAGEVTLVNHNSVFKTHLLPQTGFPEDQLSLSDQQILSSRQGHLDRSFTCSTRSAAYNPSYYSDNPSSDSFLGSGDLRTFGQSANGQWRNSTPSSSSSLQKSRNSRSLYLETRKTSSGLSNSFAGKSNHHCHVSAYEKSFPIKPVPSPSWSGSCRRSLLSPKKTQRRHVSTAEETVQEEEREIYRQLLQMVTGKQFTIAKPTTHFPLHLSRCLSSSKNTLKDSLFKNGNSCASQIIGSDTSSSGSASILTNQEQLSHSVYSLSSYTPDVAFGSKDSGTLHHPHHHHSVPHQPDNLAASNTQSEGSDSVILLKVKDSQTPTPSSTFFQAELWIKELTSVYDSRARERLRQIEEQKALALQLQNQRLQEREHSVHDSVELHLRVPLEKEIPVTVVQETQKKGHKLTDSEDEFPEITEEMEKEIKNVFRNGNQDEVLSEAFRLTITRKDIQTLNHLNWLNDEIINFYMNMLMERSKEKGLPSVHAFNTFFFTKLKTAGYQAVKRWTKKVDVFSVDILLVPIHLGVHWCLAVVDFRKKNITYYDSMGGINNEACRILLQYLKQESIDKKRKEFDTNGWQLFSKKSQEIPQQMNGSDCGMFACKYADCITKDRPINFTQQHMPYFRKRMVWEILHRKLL

[14] = target: T5, Sentrin-specific protease 1; assay: SENP1 catalytic domain blockers, concentration series – biochemical, kinetic FRET, dose response (AID 651697); type: functional; settings: read-out: IC50_Mean
Protein Wnt-3a = Protein Wnt-3a (Mus musculus, UniProt P27467); assay: antagonism of Wnt3a pathway luciferase reporter – Wnt-LIGHT cells, luminescence, selectivity assay for Gli-SUFU antagonist project, dose response (AID 651570); type: functional; settings: read-out: IC50_Mean;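 further: Wnt-LIGHT reporter cells stimulated with conditioned medium from Wnt3a-producing cells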
Sequence of Protein Wnt-3a (P27467 whole entry): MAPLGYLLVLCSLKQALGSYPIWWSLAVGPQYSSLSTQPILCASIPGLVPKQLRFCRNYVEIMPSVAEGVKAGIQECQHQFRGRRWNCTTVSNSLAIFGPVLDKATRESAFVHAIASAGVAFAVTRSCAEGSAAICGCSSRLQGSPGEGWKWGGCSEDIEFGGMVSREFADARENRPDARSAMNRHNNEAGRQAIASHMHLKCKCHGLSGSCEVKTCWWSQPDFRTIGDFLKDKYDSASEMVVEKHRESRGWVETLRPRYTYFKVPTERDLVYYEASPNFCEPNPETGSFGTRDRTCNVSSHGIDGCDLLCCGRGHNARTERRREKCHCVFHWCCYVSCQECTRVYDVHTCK

Cysteine protease ATG4B = target: T6, Cysteine protease ATG4B (Homo sapiens, UniProt Q9Y4P1); type: functional;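 further: Fluorescence-based dose-response confirmation assay measuring inhibition of ATG4B activity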
T6 sequence (Q9Y4P1 whole entry): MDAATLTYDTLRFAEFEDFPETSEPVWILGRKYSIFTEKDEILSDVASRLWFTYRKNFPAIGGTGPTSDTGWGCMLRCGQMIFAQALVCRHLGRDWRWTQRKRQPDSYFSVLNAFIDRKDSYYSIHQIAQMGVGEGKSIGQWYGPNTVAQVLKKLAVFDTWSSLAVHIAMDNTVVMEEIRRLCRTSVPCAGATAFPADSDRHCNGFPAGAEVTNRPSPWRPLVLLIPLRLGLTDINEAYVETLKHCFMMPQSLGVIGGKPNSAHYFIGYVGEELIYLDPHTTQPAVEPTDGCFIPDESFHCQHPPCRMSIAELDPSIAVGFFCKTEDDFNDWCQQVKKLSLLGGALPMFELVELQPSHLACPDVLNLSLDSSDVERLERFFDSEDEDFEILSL

Phospholipase A2 = Phospholipase A2 (Homo sapiens, UniProt P04054); type: functional;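 further: confirmatory dose-response counterscreen on phospholipase A2, testing hits that came from an ultra-high-throughput screen for ATG4B inhibitors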
Sequence of Phospholipase A2 (P04054 whole entry): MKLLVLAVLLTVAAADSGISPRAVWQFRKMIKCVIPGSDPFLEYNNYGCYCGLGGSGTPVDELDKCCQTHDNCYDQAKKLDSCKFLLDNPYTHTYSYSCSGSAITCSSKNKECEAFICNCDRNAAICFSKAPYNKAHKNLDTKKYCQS

Steroidogenic factor 1 = Steroidogenic factor 1 (Homo sapiens, UniProt Q13285); assay: Counterscreen for inverse agonists of the liver receptor homolog-1 (LRH-1; NR5A2): Luminescence-based cell-based high throughput dose response assay to identify inverse agonists of the Steroidogenic Factor 1 Nuclear Receptor (SF1; NR5A1).; type: functional
Sequence of Steroidogenic factor 1 (Q13285 whole entry): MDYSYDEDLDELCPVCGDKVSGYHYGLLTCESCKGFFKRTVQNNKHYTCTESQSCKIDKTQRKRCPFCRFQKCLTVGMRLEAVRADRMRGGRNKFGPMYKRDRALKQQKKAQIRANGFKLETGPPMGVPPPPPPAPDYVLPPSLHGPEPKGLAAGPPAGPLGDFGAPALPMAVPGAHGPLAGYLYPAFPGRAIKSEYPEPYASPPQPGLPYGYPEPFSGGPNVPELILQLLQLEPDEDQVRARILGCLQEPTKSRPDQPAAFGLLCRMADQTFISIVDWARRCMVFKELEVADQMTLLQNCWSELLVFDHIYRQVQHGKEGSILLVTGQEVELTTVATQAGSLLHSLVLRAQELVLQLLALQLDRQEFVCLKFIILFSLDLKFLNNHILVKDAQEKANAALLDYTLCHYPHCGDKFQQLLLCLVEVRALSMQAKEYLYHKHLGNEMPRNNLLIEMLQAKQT

[15] = nonselective StAR promoter luciferase inhibitors – cell-based, luminescence, luciferase reporter, counter-screen for LRH-1 inverse agonist project, dose response (AID 651969); type: functional
[16] = target: Nuclear receptor subfamily 5 group A member 2 (Homo sapiens, UniProt O00482); type: functional, cell-based;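 further: HEK293T cells transfected with LRH-1 and a StAR promoter luciferase reporter; potency for inhibitors that lower LRH-1 driven reporter light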
Sequence of Nuclear receptor subfamily 5 group A member 2 (O00482 whole entry): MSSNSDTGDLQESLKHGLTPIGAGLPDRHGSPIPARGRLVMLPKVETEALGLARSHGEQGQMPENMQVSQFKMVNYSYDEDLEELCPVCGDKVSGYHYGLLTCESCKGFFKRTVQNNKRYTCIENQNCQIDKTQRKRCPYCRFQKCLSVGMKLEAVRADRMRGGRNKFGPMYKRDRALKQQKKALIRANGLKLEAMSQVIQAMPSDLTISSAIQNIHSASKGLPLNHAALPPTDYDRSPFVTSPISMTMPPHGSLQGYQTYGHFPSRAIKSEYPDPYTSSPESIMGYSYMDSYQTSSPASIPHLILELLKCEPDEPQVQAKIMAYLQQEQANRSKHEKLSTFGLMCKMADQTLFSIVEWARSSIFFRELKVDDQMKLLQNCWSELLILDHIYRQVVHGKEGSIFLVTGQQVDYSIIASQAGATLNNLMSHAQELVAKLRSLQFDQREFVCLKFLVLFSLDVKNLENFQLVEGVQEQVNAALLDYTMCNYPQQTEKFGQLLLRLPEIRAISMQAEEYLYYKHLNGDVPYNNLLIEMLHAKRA

[17] = Luminescence Cell-Based Dose Confirmation HTS to Identify Inhibitors of Platelet Dense Granule Release. [Related pubchem assays: 1663 (Primary HTS), 1678 (Summary of Project)]; type: functional
[18] = target: Luciferin 4-monooxygenase (Photinus pyralis, UniProt P08659); assay: inhibition of purified Photinus pyralis luciferase – biochemical, luminescence, dose response (AID 1891)
Sequence of Luciferin 4-monooxygenase (P08659 whole entry): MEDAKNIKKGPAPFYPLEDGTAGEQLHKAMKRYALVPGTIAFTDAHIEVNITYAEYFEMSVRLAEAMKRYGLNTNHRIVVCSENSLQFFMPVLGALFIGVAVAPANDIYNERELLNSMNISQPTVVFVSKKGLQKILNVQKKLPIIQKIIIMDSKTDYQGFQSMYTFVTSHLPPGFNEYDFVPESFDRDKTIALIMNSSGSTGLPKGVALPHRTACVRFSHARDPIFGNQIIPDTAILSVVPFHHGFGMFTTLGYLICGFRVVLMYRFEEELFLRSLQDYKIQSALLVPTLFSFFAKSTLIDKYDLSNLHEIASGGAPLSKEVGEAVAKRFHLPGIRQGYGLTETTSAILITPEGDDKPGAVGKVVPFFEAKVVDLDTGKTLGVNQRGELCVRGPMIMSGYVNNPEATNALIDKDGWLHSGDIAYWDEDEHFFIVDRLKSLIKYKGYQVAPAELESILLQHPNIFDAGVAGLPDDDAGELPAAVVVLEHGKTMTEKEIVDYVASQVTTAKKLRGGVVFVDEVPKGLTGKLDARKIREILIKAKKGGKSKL

Clc1nnc(N/N=C/c2ccccc2)c2ccccc12
IC50 (Caspase-3): 6.38 µM (active)
IC50 [1]: 2.83 µM (active)
IC50 [2]: 8.2 µM (active)
EC50 [3]: 0.694 µM (active)
EC50 (H4): 5.27 µM (active)
IC50 [4]: 5.57 µM (active)

COc1ccc(OC)c(Nc2nc(N)nc(CCl)n2)c1
EC50 (BJ [5]): 15.7 µM (active)
EC50 (BJ [6]): > 150 µM (inconclusive)
EC50 (BJ [7]): 0.258 µM (active)
EC50 (BJ [8]): 4.66 µM (inconclusive)
EC50 [9]: 2.16 µM (active)
CC50 (Vero): 7.93 µM (active)

CCOc1ccc2nc(NC(=O)CSc3cnn[nH]3)sc2c1
IC50 (Caspase-3): 16.3 µM (active)
IC50 [1]: 11.7 µM (active)
IC50 [2]: 44.1 µM (active)
IC50 [4]: 32.8 µM (active)

COCCCN(C(S)=Nc1c(C)cc(C)cc1C)C(C)c1ccccn1 (stereo not given)
IC50 [10]: 4.94 µM (active)
IC50 [11]: 15.1 µM (active)
IC50 [12]: > 80 µM (inactive)

Cc1ccc2cc3c(N)c(C(=O)N4CCOCC4)sc3nc2c1
IC50 [13]: 30.6 µM (inactive)
IC50 [14]: 35.9 µM (inactive)

Clc1ccc(-c2c[n+](-c3ccccc3)c3n2CCS3)cc1
IC50 (Protein Wnt-3a): 22.5 µM (inactive)

CC/C=C\C/C=C\C/C=C\CCCCCCCC(=O)O [LINOLENIC ACID]
IC50 (Cysteine protease ATG4B): 15.3 µM (active)
IC50 (Phospholipase A2): 22.3 µM (inactive)

COC(=O)c1ccc(NC(=O)CN2CCN(c3ccc(Cl)cc3)CC2)cc1
IC50 (Steroidogenic factor 1): 30.7 µM (inactive)
IC50 [15]: 35.9 µM (inactive)
IC50 [16]: 35.9 µM (inactive)

Cc1c(NC(=S)NC(=O)c2ccc(Cl)cc2)c(=O)n(-c2ccccc2)n1C
IC50 (Steroidogenic factor 1): 35.9 µM (inactive)
IC50 [15]: 35.9 µM (inactive)
IC50 [16]: 12 µM (inactive)

O=[N+]([O-])c1ccc(N2CCN(C(=S)NCc3ccc(Cl)cc3)CC2)cc1
IC50 (Protein Wnt-3a): 5.08 µM (active)

Cc1cccc(OCC(=O)Nc2ccccc2-c2ccccc2)c1
EC50 [17]: > 112 µM (not active)
IC50 (Cysteine protease ATG4B): 11.5 µM (active)
IC50 (Phospholipase A2): 11.9 µM (active)
EC50 [18]: 73.8 µM (active)
